Source: article PMC13005684 (Advanced Healthcare Materials, 2025)
Structures can show the parent of a compound that is named as a salt.

Key:
MDA-MB-231 cells [1] = assay: cells; assay type: cell-based; conditions: Homo sapiens, MDA-MB-231, 72 h, read-out: 3-day IC50
MDA-MB-231 cells [2] = assay type: cell-based, human

SMILES | IC50 (MDA-MB-231 cells [1]) [nM] | cell death pathway triggered (MDA-MB-231 cells [2])
COC1=C2C[C@@H](C)C[C@H](OC)[C@H](O)[C@@H](C)/C=C(\C)[C@H](OC(N)=O)[C@@H](OC)/C=C\C=C(/C)C(=O)NC(=CC1=O)C2=O [geldanamycin, Geldanamycin] | 3700 | apoptosis
COc1cccc2c1C(=O)c1c(O)c3c(c(O)c1C2=O)C[C@@](O)(C(=O)CO)C[C@@H]3O[C@H]1C[C@H](N)[C@H](O)[C@H](C)O1 [doxorubicin, doxorubicin hydrochloride] | ~510 | necrotic cell death pathway
